US10926086B2, “Lymphatic system neuromodulation and uses thereof” (THE FEINSTEIN INSTITUTES FOR MEDICAL RESEARCH, priority 2016, dated 2021)

Key:
Mice immunized with KLH = assay: Nerve block: antigen signal in sciatic lymph node after bupivacaine; assay type: in vivo; details: 25 μl bupivacaine 0.375% at sciatic and femoral nerves before KLH-800CW in hind paw, imaged after one hour, mean±SEM, saline control 31.45±3.759, p<0.05
Experimental: In situ Antigen Imaging. 20 μl of 100 μg/ml labeled antigen was injected subcutaneously into the dorsum of the hind paw with an insulin syringe. After the predetermined time, the animal was euthanized using carbon dioxide, the skin over the area of interest was removed, and the animal was placed in a supine position in an Odyssey infrared imager. To image lymph node antigen content, sciatic and popliteal lymph nodes were surgically removed and placed into black, clear-bottomed 96-well plates filled with T-per (Thermo Scientific). These plates were imaged on the Odyssey imager. Immunization. Unlabeled antigen (100 μg) and 50% Imject alum (Thermo Scientific) in 200 μl 0.9% saline was injected intraperitoneally. Two weeks later, animals were injected again with the same solution as a booster. Two weeks after the booster injection, animals were used for experiments. Control animals received injections of 50% alum in saline. Nerve Block. Mice were immunized with 100 μg antigen and 50% Imject alum in 200 μl saline injected intraperitoneally twice, two weeks apart. Two weeks after the second injections, 25 μl bupivacaine (0.375%, APP Pharmaceuticals) or 0.9% saline was injected at the sciatic nerve and the femoral nerve of the hind leg. 20 minutes after the initial injection, animals were injected with labeled antigen in the dorsum of the hind paw. […]

Naïve Balb/c mice = assay: Passive immunization: labeled antigen accumulation in sciatic lymph nodes; assay type: in vivo; details: naïve mice given rabbit polyclonal anti-OVA antibodies i.p.; 24 hours later 800CW-labeled antigen s.c. in dorsum of hind paw; imaged after one hour; mean±SEM
Experimental: In situ Antigen Imaging. 20 μl of 100 μg/ml labeled antigen was injected subcutaneously into the dorsum of the hind paw with an insulin syringe. After the predetermined time, the animal was euthanized using carbon dioxide, the skin over the area of interest was removed, and the animal was placed in a supine position in an Odyssey infrared imager. To image lymph node antigen content, sciatic and popliteal lymph nodes were surgically removed and placed into black, clear-bottomed 96-well plates filled with T-per (Thermo Scientific). These plates were imaged on the Odyssey imager.
Passive Immunization. Naïve Balb/c mice were injected intraperitoneally with 100 μg rabbit polyclonal anti-ovalbumin antibody (Millipore). After 24 hours, mice were injected with OVA-800CW or KLH-800CW subcutaneously in the dorsum of the hind paw. After one hour, mice were euthanized and imaged.

Molecule	antigen signal in the sciatic lymph node (KLH-800CW fluorescence) (Mice immunized with KLH)	accumulation of labeled antigen in the sciatic lymph nodes (fluorescence signal) (Naïve Balb/c mice)
CCCCN1CCCCC1C(=O)Nc1c(C)cccc1C (centres unmarked) [bupivacaine]	45.65±5.350	–
OVA: ovalbumin labeled with IrDye 800CW-NHS ester infrared fluorescent dye (conjugate, UniProt P01012 2-386, looked up, IRDye 800CW label, ovalbumin labeled with IrDye 800CW-NHS ester infrared fluorescent dye) Ovalbumin: GSIGAASMEFCFDVFKELKVHHANENIFYCPIAIMSALAMVYLGAKDSTRTQINKVVRFDKLPGFGDSIEAQCGTSVNVHSSLRDILNQITKPNDVYSFSLASRLYAEERYPILPEYLQCVKELYRGGLEPINFQTAADQARELINSWVESQTNGIIRNVLQPSSVDSQTAMVLVNAIVFKGLWEKAFKDEDTQAMPFRVTEQESKPVQMMYQIGLFRVASMASEKMKILELPFASGTMSMLVLLPDEVSGLEQLESIINFEKLTEWTSSNVMEERKIKVYLPRMKMEEKYNLTSVLMAMGITDVFSSSANLSGISSAESLKISQAVHAAHAEINEAGREVVGSAEAGVDAASVSEEFRADHPFLFCIKHIATNAVLFFGRCVSP	–	6.483±1.461
